Measurements: ChEMBL document CHEMBL1128021, “Potent and selective inhibitors of gelatinase-a 1. hydroxamic acid derivatives” (Bioorg Med Chem Lett, 1994)

Key:
[1] = target: 72 kDa type IV collagenase (Homo sapiens, UniProt P08253); assay: Inhibition of the gelatinase-A enzyme.
[2] = target: Stromelysin-1 (Homo sapiens, UniProt P08254); assay: Inhibition of the stromelysin enzyme.
[3] = target: T1, Interstitial collagenase (Homo sapiens, UniProt P03956); assay: Inhibition of the collagenase enzyme.
T1 sequence (P03956 whole entry): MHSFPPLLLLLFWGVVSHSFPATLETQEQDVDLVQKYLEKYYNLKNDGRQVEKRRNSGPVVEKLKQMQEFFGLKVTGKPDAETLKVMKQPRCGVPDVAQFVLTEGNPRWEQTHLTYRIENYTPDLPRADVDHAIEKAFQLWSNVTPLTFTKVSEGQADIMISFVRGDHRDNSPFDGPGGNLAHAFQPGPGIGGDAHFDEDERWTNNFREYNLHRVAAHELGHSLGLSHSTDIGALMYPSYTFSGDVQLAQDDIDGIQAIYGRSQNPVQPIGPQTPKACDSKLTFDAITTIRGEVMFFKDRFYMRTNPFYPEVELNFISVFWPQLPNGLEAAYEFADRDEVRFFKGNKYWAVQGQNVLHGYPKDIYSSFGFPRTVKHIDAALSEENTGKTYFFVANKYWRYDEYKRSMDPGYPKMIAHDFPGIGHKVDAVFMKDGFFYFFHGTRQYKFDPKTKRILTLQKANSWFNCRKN

Chain of 72 kDa type IV collagenase (P08253 whole entry): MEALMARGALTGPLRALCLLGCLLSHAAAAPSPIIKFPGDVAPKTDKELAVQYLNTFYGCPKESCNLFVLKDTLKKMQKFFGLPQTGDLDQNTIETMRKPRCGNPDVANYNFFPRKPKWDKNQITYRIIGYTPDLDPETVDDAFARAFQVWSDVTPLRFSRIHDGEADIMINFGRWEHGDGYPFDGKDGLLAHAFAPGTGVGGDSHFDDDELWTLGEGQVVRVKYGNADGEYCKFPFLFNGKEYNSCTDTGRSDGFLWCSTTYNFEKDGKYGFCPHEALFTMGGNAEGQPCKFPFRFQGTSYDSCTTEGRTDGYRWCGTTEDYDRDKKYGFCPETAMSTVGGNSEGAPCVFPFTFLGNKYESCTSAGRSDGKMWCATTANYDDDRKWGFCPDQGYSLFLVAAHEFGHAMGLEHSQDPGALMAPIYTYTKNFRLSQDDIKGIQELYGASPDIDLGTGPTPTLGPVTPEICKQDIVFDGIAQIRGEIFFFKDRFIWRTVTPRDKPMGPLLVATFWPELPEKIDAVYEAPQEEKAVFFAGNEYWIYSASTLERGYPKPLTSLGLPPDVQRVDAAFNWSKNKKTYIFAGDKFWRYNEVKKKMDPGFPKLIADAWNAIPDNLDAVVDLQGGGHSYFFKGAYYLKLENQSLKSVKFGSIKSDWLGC
Chain of Stromelysin-1 (P08254 whole entry): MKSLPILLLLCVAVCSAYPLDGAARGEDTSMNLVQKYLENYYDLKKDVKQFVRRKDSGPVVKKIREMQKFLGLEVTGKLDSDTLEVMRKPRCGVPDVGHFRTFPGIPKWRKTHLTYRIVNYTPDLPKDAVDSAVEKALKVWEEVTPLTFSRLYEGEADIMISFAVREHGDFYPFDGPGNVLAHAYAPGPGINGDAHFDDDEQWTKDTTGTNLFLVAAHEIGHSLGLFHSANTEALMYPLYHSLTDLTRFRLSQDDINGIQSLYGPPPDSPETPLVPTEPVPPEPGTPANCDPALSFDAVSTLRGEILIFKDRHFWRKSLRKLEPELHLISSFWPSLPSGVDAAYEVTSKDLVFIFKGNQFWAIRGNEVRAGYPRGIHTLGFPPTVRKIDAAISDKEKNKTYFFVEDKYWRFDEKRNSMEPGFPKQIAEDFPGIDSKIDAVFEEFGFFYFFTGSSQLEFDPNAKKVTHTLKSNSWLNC

Structure (SMILES)	Ki [1] [nM]	Ki [2] [nM]	Ki [3] [nM]
CN(C)CCCCNC(=O)[C@H](CC1CCCCC1)NC(=O)[C@H](CCCc1ccc(Cl)cc1)CC(=O)NO	0.05	22.2	1050
Cc1ccc(CCC[C@H](CC(=O)NO)C(=O)N[C@@H](CC2CCCCC2)C(=O)NCCN2CCOCC2)cc1	0.01	6.26	455
O=C(C[C@@H](CCCc1ccc(Cl)cc1)C(=O)N[C@@H](CC1CCCCC1)C(=O)NCCNS(=O)(=O)N1CCOCC1)NO	0.01		
Cc1ccc(CCC[C@H](CC(=O)NO)C(=O)N[C@@H](CC2CCCCC2)C(=O)NCCc2ccc(S(N)(=O)=O)cc2)cc1	0.01	2.98	329
NS(=O)(=O)c1ccc(CCNC(=O)[C@H](CC2CCCCC2)NC(=O)[C@H](CCCc2ccc(Cl)cc2)CC(=O)NO)cc1	0.03	6.35	382
COC(=O)CCNC(=O)[C@H](CC1CCCCC1)NC(=O)[C@H](CCCc1ccc(Cl)cc1)CC(=O)NO	0.01	0.96	135
O=C(C[C@@H](CCCc1ccc(Cl)cc1)C(=O)N[C@@H](CC1CCCCC1)C(=O)NCCC(=O)N1CCOCC1)NO	0.02	1.38	319
Cc1ccc(CCC[C@H](CC(=O)NO)C(=O)N[C@@H](CC2CCCCC2)C(=O)NCCNS(=O)(=O)N2CCOCC2)cc1	0.01		
O=C(C[C@@H](CCCc1ccc(Cl)cc1)C(=O)N[C@@H](CC1CCCCC1)C(=O)NCCCCN1CCOCC1)NO	0.03	2.39	313
Cc1ccc(CCC[C@H](CC(=O)NO)C(=O)N[C@@H](CC2CCCCC2)C(=O)NCCCCN(C)C)cc1	0.02	5.87	313
CC(C)C[C@H](CC(=O)NO)C(=O)N[C@@H](CC(C)C)C(=O)N[C@@H](Cc1ccccc1)C(N)=O		127	303
Cc1ccc(CCC[C@H](CC(=O)NO)C(=O)N[C@@H](CC2CCCCC2)C(=O)NCCCCN2CCOCC2)cc1	0.02	2.61	642

More lines, now with the values ahead:

Ki [1] [nM]	Ki [2] [nM]	Ki [3] [nM]	Structure (SMILES)
0.06	13.5	296	O=C(C[C@@H](CCCc1ccc(F)cc1)C(=O)N[C@@H](CC1CCCCC1)C(=O)NCCc1ccccc1)NO
0.06	4.16	1530	COc1ccc(CCC[C@H](CC(=O)NO)C(=O)N[C@@H](CC2CCCCC2)C(=O)NCCc2ccccc2)cc1
0.03	7.31		O=C(C[C@@H](CCCc1ccc(Cl)cc1)C(=O)N[C@@H](CC1CCCCC1)C(=O)NCCc1ccccc1)NO
0.08	8.24	921	Cc1ccc(CCC[C@H](CC(=O)NO)C(=O)N[C@@H](CC2CCCCC2)C(=O)NCCc2ccccc2)cc1
1900	> 10000	> 10000	O=C(C[C@@H](Cc1ccccc1)C(=O)N[C@@H](CC1CCCCC1)C(=O)NCCc1ccccc1)NO
6.9			O=C(C[C@@H](CCCC1CCCCC1)C(=O)N[C@@H](CC1CCCCC1)C(=O)NCCc1ccccc1)NO
0.1	5.44	5120	CCc1ccc(CCC[C@H](CC(=O)NO)C(=O)N[C@@H](CC2CCCCC2)C(=O)NCCc2ccccc2)cc1
0.254	177	2500	O=C(C[C@@H](CCCCc1ccccc1)C(=O)N[C@@H](CC1CCCCC1)C(=O)NCCc1ccccc1)NO
0.062	8.3	203	O=C(C[C@@H](CCCc1ccccc1)C(=O)N[C@@H](CC1CCCCC1)C(=O)NCCc1ccccc1)NO
0.3	90.3	5000	O=C(C[C@@H](CCCc1ccc(C(F)(F)F)cc1)C(=O)N[C@@H](CC1CCCCC1)C(=O)NCCc1ccccc1)NO
0.33	25.3	7.8	CC(C)C[C@H](CC(=O)NO)C(=O)N[C@@H](CC1CCCCC1)C(=O)NCCc1ccccc1
2.24	77	618	O=C(C[C@@H](CCc1ccccc1)C(=O)N[C@@H](CC1CCCCC1)C(=O)NCCc1ccccc1)NO
0.59	8.15	942	O=C(C[C@@H](CCCc1ccccc1)C(=O)N[C@@H](CC1CCCCC1)C(=O)NCCc1ccc(S(=O)(=O)O)cc1)NO
0.01	0.8	193	O=C(O)CCNC(=O)[C@H](CC1CCCCC1)NC(=O)[C@H](CCCc1ccc(Cl)cc1)CC(=O)NO
